{"source": "patent US10648979B2", "about": "“Molecular probes for detecting gram-negative bacteria in vitro and in vivo” (priority 2014, dated 2020)", "system": "bacteria in ovine lung", "experiment": "Automated image processing of entire FCFM videos from ovine lung", "settings": "80 spots per frame threshold", "text": "FIG. 19: Image Processing Algorithms delineate ‘positive’ and ‘negative’ frames from FCFM data A) raw data for a frame that is deemed positive or negative. B) Without pre-processing, spot-detection is ineffective. Following estimation of background noise C), high-pass filtering D) and appropriate thresholding E), the current algorithm detect minimal punctate signal in negative frames F).\nAnalysis of NBD-UBIdend videos with thresholding at 80 spots per frame and an arbitrary cut-off of 10% enables objective detection of bacteria using a combination of Laplacian of Gaussian (LoG) and Difference of Gaussians (DoG) positive frames. […]\nWe have begun to develop bespoke image analysis/processing strategies to perform rapid real-time objective analysis of the large datasets generated by the probe/FCFM platform. […] These signal and image processing algorithms will be rapidly iterated in readiness for clinical application, and we expect significant components of machine-learning to be incorporated into further optimisation of NBD-UBIdend and NBD-PMX datasets.\nSpots are enhanced in an image by convolving with a LoG or DoG filter. […] Finally, spots are detected with LoG or DoG. […]", "note": "Bridge positions count the residues as written; N and C are the ends. Square brackets hold non-standard residues; d marks the D form. Peptide text beside a SMILES is read from it. * marks the point of attachment. ξ: configuration not given here. NBD = O=[N+]([O-])c1ccc(*)c2nonc12; dDab = NCC[C@@H](N)C(=O)O; Dab = NCC[C@H](N)C(=O)O; AEEA = NCCOCCOCC(=O)O; ξDab = NCCC(N)C(=O)O", "data": [{"compound": "CC(C)C[C@@H]1NC(=O)[C@@H](Cc2ccccc2)NC(=O)[C@@H](CCN)NC(=O)C(NC(=O)[C@H](CCN)NC(=O)[C@@H](NC(=O)COCCOCCNc2ccc([N+](=O)[O-])c3nonc23)[C@@H](C)O)CCNC(=O)[C@@H]([C@H](C)O)NC(=O)[C@H](CCN)NC(=O)[C@H](CCN)NC1=O", "note": "(stereo partly shown) [NBD-PMX] ({NBD-AEEA}-T[Dab][ξDab][dDab][dF]L[Dab][Dab][dT]; lactam 3-C)", "values": [{"measurement": "detection by automated image processing (percentage positive frames, YES/NO)", "result": "unequivocal detection of bacteria and Gram status"}]}]}
